From patent US20230286958A1, “PLASMA KALLIKREIN INHIBITORS” (Merck Sharp & Dohme LLC, priority 2020, published 2023)

How the values were obtained:
Human plasma kallikrein = Human plasma kallikrein (Homo sapiens (Human), UniProt P03952); test: Kallikrein Assay (fluorogenic substrate Acetyl-K-P-R-AFC); assay type: biochemical; settings: Plasma Kallikrein (PKal)
Description: (§1) The effectiveness of a compound of the present invention as an inhibitor of Kallikrein can be determined using a relevant purified serine protease, and an appropriate synthetic substrate. The rate of hydrolysis of the chromogenic or fluorogenic substrate by the relevant serine protease was measured both in the absence and presence of compounds of the present invention. Assays were conducted at room temperature or at 37° C. […] A decrease in the rate of fluorescence change in the presence of inhibitor is indicative of enzyme inhibition. Such methods are known to one skilled in the art. The results of this assay are expressed as the half-maximal inhibitory concentrations (IC50), or the inhibitory constant, Ki.
Kallikrein determinations were made in 50 mM HEPES buffer at pH 7.4 containing 150 mM NaCl, 5 mM CaC12, and 0.1% PEG 8000 (polyethylene glycol; Fisher Scientific). Determinations were made using purified Human plasma kallikrein at a final concentration of 0.5 nM (Enzyme Research Laboratories) and the synthetic substrate, Acetyl-K-P-R-AFC (Sigma # C6608) at a concentration of […].
Times required to achieve equilibration between enzyme and inhibitor were determined in control experiments. […] IC50 was determined by inflection point from a four parameter logistic curve fit. Ki was calculated using the Cheng Prusoff equation, Ki = IC50/(1+([S]/Km)).

human Factor XIa = human Factor XIa (Homo sapiens (Human), UniProt P03951); test: Factor XIa Assay (fluorogenic substrate GPR-AFC); assay type: biochemical; settings: Factor XIa (FXIa)
human Factor XIa, sequence (P03951 388-625 limits assumed): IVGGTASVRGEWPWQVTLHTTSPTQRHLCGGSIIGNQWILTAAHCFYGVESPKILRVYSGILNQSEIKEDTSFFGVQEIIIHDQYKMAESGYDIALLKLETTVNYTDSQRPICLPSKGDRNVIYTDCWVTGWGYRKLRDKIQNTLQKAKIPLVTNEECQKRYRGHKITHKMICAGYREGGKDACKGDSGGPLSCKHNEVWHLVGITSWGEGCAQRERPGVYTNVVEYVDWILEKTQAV
human Factor XIa, sequence (P03951 19-387 partner limits assumed): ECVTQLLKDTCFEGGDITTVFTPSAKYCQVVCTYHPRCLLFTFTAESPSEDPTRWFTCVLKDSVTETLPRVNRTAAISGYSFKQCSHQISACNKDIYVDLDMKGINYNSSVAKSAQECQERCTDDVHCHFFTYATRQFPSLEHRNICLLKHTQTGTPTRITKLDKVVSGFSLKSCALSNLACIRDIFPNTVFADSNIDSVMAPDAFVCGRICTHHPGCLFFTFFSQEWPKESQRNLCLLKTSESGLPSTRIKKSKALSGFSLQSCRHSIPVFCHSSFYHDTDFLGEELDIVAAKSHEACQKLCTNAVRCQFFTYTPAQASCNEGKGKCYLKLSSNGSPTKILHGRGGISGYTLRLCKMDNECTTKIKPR
Description: as §1, with “Coagulation Factor XIa” for “Kallikrein”
Compounds were pre-incubated for 30 minutes at 25° C. with human (0.04 nM) Factor XIa in 50 mM HEPES buffer with 150 mM sodium chloride, 5 mM calcium chloride, 0.1% PEG 8000, pH 7.4. […] The % inhibition for each data point was calculated from the data and analyzed using the log (inhibitor) vs. response four parameters equation to determine the half-maximal inhibitory concentrations (IC50). The IC50 were converted to equilibrium inhibitory constants (Ki) using the Cheng-Prusoff equation.

Human plasma kallikrein, sequence (P03952 391-638): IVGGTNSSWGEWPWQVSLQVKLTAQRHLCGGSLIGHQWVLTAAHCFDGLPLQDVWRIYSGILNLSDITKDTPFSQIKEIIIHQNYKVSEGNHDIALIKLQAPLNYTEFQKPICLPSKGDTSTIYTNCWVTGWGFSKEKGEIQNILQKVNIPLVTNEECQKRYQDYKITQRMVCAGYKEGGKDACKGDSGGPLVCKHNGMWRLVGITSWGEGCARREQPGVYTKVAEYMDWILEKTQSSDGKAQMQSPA
Human plasma kallikrein, sequence (P03952 20-390 partner): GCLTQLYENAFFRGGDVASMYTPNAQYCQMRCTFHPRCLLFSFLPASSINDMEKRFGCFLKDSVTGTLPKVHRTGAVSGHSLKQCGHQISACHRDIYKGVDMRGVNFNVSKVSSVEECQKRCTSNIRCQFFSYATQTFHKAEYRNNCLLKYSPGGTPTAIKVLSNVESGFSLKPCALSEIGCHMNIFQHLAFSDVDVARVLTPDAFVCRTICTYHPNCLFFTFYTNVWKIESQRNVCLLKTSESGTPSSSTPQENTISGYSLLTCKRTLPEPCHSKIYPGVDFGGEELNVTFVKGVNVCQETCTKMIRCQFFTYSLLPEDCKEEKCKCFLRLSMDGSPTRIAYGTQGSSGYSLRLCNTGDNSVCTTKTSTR

Compound	IC50 (Human plasma kallikrein) [nM]	IC50 (human Factor XIa) [nM]
Cc1nc(N2C[C@H]3C[C@H]3C2=O)ncc1C(C)n1cc(NC(=O)c2nc(-c3c(C(F)F)ccc(Cl)c3F)cnc2C)cn1 (single isomer, unassigned) [Example 42]	0.7	1520
Cc1cc(C(C)n2cc(NC(=O)c3cncc(-c4c(C(F)F)ccc(Cl)c4F)n3)cn2)cnc1N1C[C@H]2C[C@H]2C1=O (single isomer, unassigned) [Example 66, 6-(3-Chloro-6-(difluoromethyl)-2-fluorophenyl)-N-(1-((S or R)-1-(5-methyl-6-((1R,5S)-2-oxo-3-azabicyclo[3.1.0]hexan-3-yl)pyridin-3-yl)ethyl)-1H-pyrazol-4-yl)pyrazine-2-carboxamide]	0.6	1630
COCc1ncc(-c2c(C(F)F)ccc(Cl)c2F)nc1C(=O)Nc1cnn(C2(c3cnc(N4C[C@H]5C[C@H]5C4=O)c(C)n3)CC2)c1 [Example 221, 6-(3-Chloro-6-(difluoromethyl)-2-fluorophenyl)-3-(methoxymethyl)-N-(1-(1-(6-methyl-5-((1R,5S)-2-oxo-3-azabicyclo[3.1.0]hexan-3-yl)pyrazin-2-yl)cyclopropyl)-1H-pyrazol-4-yl)pyrazine-2-carboxamide]	14.9	> 10000
Cc1cc(C(C)n2cc(NC(=O)c3nc(-c4c(C(F)F)ccc(Cl)c4F)cnc3C(C)O)cn2)cnc1N1C[C@H]2C[C@H]2C1=O (single isomer, unassigned) [Example 212, 6-(3-Chloro-6-(difluoromethyl)-2-fluorophenyl)-3-((S or R)-1-hydroxyethyl)-N-(1-((R or S)-1-(5-methyl-6-((1R,5S)-2-oxo-3-azabicyclo[3.1.0]hexan-3-yl)pyridin-3-yl)ethyl)-1H-pyrazol-4-yl)pyrazine-2-carboxamide]	1	354
CCc1ncc(-c2c(C(F)F)ccc(Cl)c2F)nc1C(=O)Nc1cnn(Cc2cnc(N3C[C@H]4C[C@H]4C3=O)c3c2OCO3)c1 [Example 255, 6-(3-Chloro-6-(difluoromethyl)-2-fluorophenyl)-3-ethyl-N-(1-((4-((1R,5S)-2-oxo-3-azabicyclo[3.1.0]hexan-3-yl)-[1,3]dioxolo[4,5-c]pyridin-7-yl)methyl)-1H-pyrazol-4-yl)pyrazine-2-carboxamide]	2.6	734
Cc1ncc(-c2c(C(F)F)ccc(Cl)c2F)nc1C(=O)Nc1cnn([C@H](C)c2cnc(N3C[C@H]4C[C@H]4C3=O)c(N)c2)c1 [Example 190]	0.7	1040
CC(c1cnc(N2C[C@H]3C[C@H]3C2=O)cn1)n1cc(NC(=O)c2cncc(-c3c(C(F)F)ccc(Cl)c3F)n2)cn1 (single isomer, unassigned) [Example 20, 6-(3-Chloro-6-(difluoromethyl)-2-fluorophenyl)-N-(1-((S or R)-1-(5-((1R,5S)-2-oxo-3-azabicyclo[3.1.0]hexan-3-yl)pyrazin-2-yl)ethyl)-1H-pyrazol-4-yl)pyrazine-2-carboxamide]	28.5	> 10000
Cc1ncc(-c2c(C(F)F)ccc(Cl)c2F)nc1C(=O)Nc1cnn(C(C)c2cnc(N3C[C@H]4C[C@H]4C3=O)c(C)n2)c1 (single isomer, unassigned) [Example 14, 6-(3-Chloro-6-(difluoromethyl)-2-fluorophenyl)-3-methyl-N-(1-((S or R)-1-(6-methyl-5-((1R,5S)-2-oxo-3-azabicyclo[3.1.0]hexan-3-yl)pyrazin-2-yl)ethyl)-1H-pyrazol-4-yl)pyrazine-2-carboxamide]	0.8	550
Cc1ncc(-c2c(C(F)F)ccc(Cl)c2F)nc1C(=O)Nc1cnn(C(C)c2ccc(N3CC4CC4C3=O)nc2)c1 (single isomer, unassigned) [Example 74, 6-(3-Chloro-6-(difluoromethyl)-2-fluorophenyl)-3-methyl-N-(1-((S or R)-1-(6-((1R,5S or 1S,5R)-2-oxo-3-azabicyclo[3.1.0]hexan-3-yl)pyridin-3-yl)ethyl)-1H-pyrazol-4-yl)pyrazine-2-carboxamide]	14.6	7600
Cc1nc(C2(n3cc(NC(=O)c4nc(-c5c(C(F)F)ccc(Cl)c5F)cnc4COC(C)(C)C)cn3)CC2)cnc1N1C[C@H]2C[C@H]2C1=O [Example 222, 3-(tert-Butoxymethyl)-6-(3-chloro-6-(difluoromethyl)-2-fluorophenyl)-N-(1-(1-(6-methyl-5-((1R,5S)-2-oxo-3-azabicyclo[3.1.0]hexan-3-yl)pyrazin-2-yl)cyclopropyl)-1H-pyrazol-4-yl)pyrazine-2-carboxamide]	16.7	> 10000
Cc1c(C(C)n2cc(NC(=O)c3cncc(-c4c(C(F)F)ccc(Cl)c4F)n3)cn2)cnc(N2C[C@H]3C[C@H]3C2=O)c1C (single isomer, unassigned) [Example 153, 6-(3-Chloro-6-(difluoromethyl)-2-fluorophenyl)-N-(1-((S or R)-1-(4,5-dimethyl-6-((1R,5S)-2-oxo-3-azabicyclo[3.1.0]hexan-3-yl)pyridin-3-yl)ethyl)-1H-pyrazol-4-yl)pyrazine-2-carboxamide]	2	2170
Cc1c(C(CO)n2cc(NC(=O)c3cncc(-c4c(C(F)F)ccc(Cl)c4F)n3)cn2)cnc(N2C[C@H]3C[C@H]3C2=O)c1C (single isomer, unassigned) [Example 168, 6-(3-Chloro-6-(difluoromethyl)-2-fluorophenyl)-N-(1-((S or R)-1-(4,5-dimethyl-6-((1R,5S)-2-oxo-3-azabicyclo[3.1.0]hexan-3-yl)pyridin-3-yl)-2-hydroxyethyl)-1H-pyrazol-4-yl)pyrazine-2-carboxamide]	0.4	261
Cc1cc([C@@H](C)n2cc(NC(=O)c3cncc(-c4c(C(F)F)ccc(Cl)c4F)n3)cn2)nnc1N1C[C@H]2C[C@H]2C1=O [Example 38, 6-(3-Chloro-6-(difluoromethyl)-2-fluorophenyl)-N-(1-((R)-1-(5-methyl-6-((1R,5S)-2-oxo-3-azabicyclo[3.1.0]hexan-3-yl)pyridazin-3-yl)ethyl)-1H-pyrazol-4-yl)pyrazine-2-carboxamide]	6.2	742
Cc1nc(N2C[C@H]3C[C@H]3C2=O)ncc1Cn1cc(NC(=O)c2nc(-c3c(C(F)F)ccc(Cl)c3F)cnc2CO)cn1 [Example 156, 6-(3-Chloro-6-(difluoromethyl)-2-fluorophenyl)-3-(hydroxymethyl)-N-(1-((4-methyl-2-((1R,5S)-2-oxo-3-azabicyclo[3.1.0]hexan-3-yl)pyrimidin-5-yl)methyl)-1H-pyrazol-4-yl)pyrazine-2-carboxamide]	0.9	162
Cc1nc(N2C[C@H]3C[C@H]3C2=O)c(F)cc1C(C)n1cc(NC(=O)c2cncc(-c3c(C(F)F)ccc(Cl)c3F)n2)cn1 (stereo partly drawn) [Example 150, 6-(3-Chloro-6-(difluoromethyl)-2-fluorophenyl)-N-(1-(1-(5-fluoro-2-methyl-6-((1R.5S)-2-oxo-3-azabicyclo[3.1.0]hexan-3-yl)pyridin-3-yl)ethyl)-1H-pyrazol-4-yl)pyrazine-2-carboxamide]	177	> 10000
Cc1cc(N2C[C@H]3C[C@H]3C2=O)ccc1C(C)n1cc(NC(=O)c2cncc(-c3c(C(F)F)ccc(Cl)c3F)n2)cn1 (single isomer, unassigned) [Example 99, 6-(3-Chloro-6-(difluoromethyl)-2-fluorophenyl)-N-(1-((R or S)-1-(2-methyl-4-((1R,5S)-2-oxo-3-azabicyclo[3.1.0]hexan-3-yl)phenyl)ethyl)-1H-pyrazol-4-yl)pyrazine-2-carboxamide]	49.1	2880
CC(c1cnc(N2C[C@H]3C[C@H]3C2=O)c2c1OCO2)n1cc(NC(=O)c2cncc(-c3c(C(F)F)ccc(Cl)c3F)n2)cn1 (single isomer, unassigned) [Example 251, 6-(3-Chloro-6-(difluoromethyl)-2-fluorophenyl)-N-(1-((R or S)-1-(4-((1R,5S)-2-oxo-3-azabicyclo[3.1.0]hexan-3-yl)-[1,3]dioxolo[4,5-c]pyridin-7-yl)ethyl)-1H-pyrazol-4-yl)pyrazine-2-carboxamide]	1	2480
Cc1nc(C(C)n2cc(NC(=O)c3cncc(-c4c(C(F)F)ccc(Cl)c4F)n3)cn2)cnc1N1C[C@H]2C[C@H]2C1=O (single isomer, unassigned) [Example 13, 6-(3-Chloro-6-(difluoromethyl)-2-fluorophenyl)-N-(1-((R or S)-1-(6-methyl-5-((1R,5S)-2-oxo-3-azabicyclo[3.1.0]hexan-3-yl)pyrazin-2-yl)ethyl)-1H-pyrazol-4-yl)pyrazine-2-carboxamide]	0.5	2820
